Test results taken from ChEMBL document CHEMBL1667828, “Synthesis and evaluation of new iRGD peptide analogs for tumor optical imaging” (Bioorg Med Chem Lett, 2011).
Where a SMILES comes first, the peptide text is derived from it. Bridges are numbered along the chain shown (N, C = ends). The star is where a group is joined. DOTA = O=C(O)CN1CCN(CC(=O)O)CCN(CC(=O)*)CCN(CC(=O)O)CC1

Tests used:
Type in all cases: ADME, organism-based, Neoplasm
[1] = Drug level in tumor of human MDA-MB-435 cell-xenograft athymic nude mouse model at 10 uM, iv by PET analysis; details: athymic nude mouse (human MDA-MB-435 xenograft), in vivo
[2] = Drug level in tumor of human MDA-MB-435 cell-xenograft athymic nude mouse model at 10 uM, iv after 10 mins by optical imaging analysis; details: in vivo
[3] = Drug level in tumor of human MDA-MB-435 cell-xenograft athymic nude mouse model at 10 uM, iv after 4 hrs by optical imaging analysis; details: in vivo

For `CC(=O)N[C@H](CSC1CC(=O)N(CCNC(=O)CCCCC[N+]2=C(/C=C/C3=C(Oc4ccc(S(=O)(=O)[O-])cc4)C(=C/C=C4/N(CCCCS(=O)(=O)[O-])c5ccc(S(=O)(=O)[O-])cc5C4(C)C)/CCC3)C(C)(C)c3cc(S(=O)(=O)[O-])ccc32)C1=O)C(=O)N[C@H]1CSSC[C@@H](C(N)=O)NC(=O)[C@H](CC(=O)O)NC(=O)[C@@H]2CCCN2C(=O)CNC(=O)[C@H](CCCCN)NC(=O)[C@H](CC(=O)O)NC(=O)CNC(=O)[C@H](CCCNC(=N)N)NC1=O.[Na+].[Na+].[Na+]` (stereo not given in full), the Drug uptake [1] was “Active”, the Drug uptake [2] was “Active” and the Drug uptake [3] was “Active”.

In the case of `CC1(C)C(/C=C/C2=C(Oc3ccc(S(=O)(=O)[O-])cc3)C(=C/C=C3/N(CCCCS(=O)(=O)[O-])c4ccc(S(=O)(=O)[O-])cc4C3(C)C)/CCC2)=[N+](CCCCCC(=O)NCCN2C(=O)CC(SC[C@@H](NC(=O)CN3CCN(CC(=O)O)CCN(CC(=O)O)CCN(CC(=O)O)CC3)C(=O)N[C@H]3CSSC[C@@H](C(N)=O)NC(=O)[C@H](CC(=O)O)NC(=O)[C@@H]4CCCN4C(=O)CNC(=O)[C@H](CCCCN)NC(=O)[C@H](CC(=O)O)NC(=O)CNC(=O)[C@H](CCCNC(=N)N)NC3=O)C2=O)c2ccc(S(=O)(=O)[O-])cc21.[Na+].[Na+].[Na+]` (stereo not given in full), the Drug uptake [1] is reported as “Active”, the Drug uptake [2] is reported as “Active” and the Drug uptake [3] is reported as “Active”.

In the case of `CC(=O)N[C@@H](CS)C(=O)N[C@H]1CSSC[C@@H](C(N)=O)NC(=O)[C@H](CC(=O)O)NC(=O)[C@@H]2CCCN2C(=O)CNC(=O)[C@H](CCCCN)NC(=O)[C@H](CC(=O)O)NC(=O)CNC(=O)[C@H](CCCNC(=N)N)NC1=O` (Ac-CCRGDKGPDC-NH2; disulfide 2-10), the Drug uptake [1] is reported as “Active” and the Drug uptake [3] is reported as “Active”.

With `N=C(N)NCCC[C@@H]1NC(=O)[C@@H](NC(=O)[C@H](CS)NC(=O)CN2CCN(CC(=O)O)CCN(CC(=O)O)CCN(CC(=O)O)CC2)CSSC[C@@H](C(N)=O)NC(=O)[C@H](CC(=O)O)NC(=O)[C@@H]2CCCN2C(=O)CNC(=O)[C@H](CCCCN)NC(=O)[C@H](CC(=O)O)NC(=O)CNC1=O` ({DOTA}-CCRGDKGPDC-NH2; disulfide 2-10) the Drug uptake [1] was “Active” and the Drug uptake [3] was “Active”.
